Experimental data: patent US5326882A, “Chemiluminescent 3-(substituted Adamant-2'-Ylidene) 1,2-dioxetanes” (Tropix, Inc., priority 1992, dated 1994)

Legend:
[1] = target: T1, alkaline phosphatase (Bos taurus, UniProt P19111); test: Alkaline phosphatase detection limits, LabSystems Luminoskan (Example XXV); type: biochemical
Procedure: The detection means for alkaline phosphatase with different chemiluminescent 1,2-dioxetane substrates were determined as follows: Duplicates of serial dilutions (1 to 3) of alkaline phosphates were incubated at room temperature with 0.4 mM dioxetane in 0.1 M diethanolamine, 1 mM MgCl2, pH 10.0, containing 1 mg/ml of either of the polymeric enhancers Enhancer 1 or Enhancer 2, in […].
Following either a 5 or a 20 minute incubation with a substrate, the chemiluminescence intensity was measured as a 5 second integrated Relative Light Units (RLU) and plotted as in FIG. 10. […] The alkaline phosphatase concentrations at twice background were used as the detection limits in Table 5.
The luminometer used in this example was LabSystems Luminoskan microtiter plate reader.

[2] = target: T1, alkaline phosphatase; test: Alkaline phosphatase detection limits, Wilj microtiter plate luminometer (Example XXVI); type: biochemical; details: 23 MINUTE INCUBATION
[3] = target: T2, alkaline phosphatase-labeled DNA probe (Bos taurus, UniProt P19111); test: Alkaline phosphatase-labeled DNA probe detection in membrane with and without BDMQ blocking step (Example XV); details: for Detection limit (in picograms DNA) 5. min. exp.: five minute exposure 40 minutes after dioxetane addition; for Detection limit (in picograms DNA) 1 min. exp.: one minute exposure 77 minutes after dioxetane addition
T2 construct: purchased Tropix, Inc
Procedure: pBr 322 plasmid (4700 bp) was subjected to a nick translation process using a Trans-Light kit (Tropix, Inc., Bedford, Mass.) to generate a mixture of biotinylated single stranded polynucleotides of 200-2000 bps in length.
This mixture was dotted onto a dry BIODYNE A membrane as five parallel columns of dots of the following concentrations:
The membrane was subjected to ultraviolet irradiation (UVP Mineral Light; UVP, San Gabriel, Calif.) for 3 minutes to fix the DNA to the surface of the membrane, then air dried. Next, the membrane was blocked in 0.2% casein/0.1% Tween 20 detergent in PBS for 1 hour, following which 1/5000 diluted avidin-alkaline phosphatase conjugate (Tropix, Inc.) in 0.2% casein in PBS was added. The membrane was then incubated for 30 minutes, washed three times (for 5 minutes each time) in 0.2% casein/0.1% Tween 20 detergent in PBS and washed once for five minutes in aqueous 0.1M diethanolamine containing 1 mm magnesium chloride and 0.02% sodium azide, pH 10.0 (substrate buffer).
Next, the five columns of rows of dots 1-5 were individually cut from the membrane ("strips 1-5"), as were the five columns of rows of dots 6-10 ("strips 6-10"). Strips 1-5 were washed with substrate buffer for 30 minutes. Strips 6-10 were blocked in 0.1% BDMQ in substrate buffer for 30 minutes. Both sets of strips were then incubated for 5 minutes in substrate buffer, then individually incubated for five minutes in aqueous solutions (0.25 mM) of 1,2-dioxetanes as indicated below:
All strips were then placed in camera luminometers and exposed on Polaroid Type 612 instant black and white film.

[4] = target: T1, alkaline phosphatase; test: Half-time to plateau at low alkaline phosphatase concentration (Example XLI); type: biochemical; details: 0.4 mM dioxetane at pH 10.0, 31.5° C., 2.53 × 10^-13 M alkaline phosphatase
[5] = SAPPHIRE II, 5 MINUTE INCUBATION
[6] = SAPPHIRE II, 20 MINUTE INCUBATION
[7] = BDMQ blocking step, listed as OH-Adamant-2'-ylidene (A isomer)
[8] = BDMQ blocking step, listed as OH-Adamant-2'-ylidene (B isomer)

T2 sequence (P19111 20-506 limits assumed): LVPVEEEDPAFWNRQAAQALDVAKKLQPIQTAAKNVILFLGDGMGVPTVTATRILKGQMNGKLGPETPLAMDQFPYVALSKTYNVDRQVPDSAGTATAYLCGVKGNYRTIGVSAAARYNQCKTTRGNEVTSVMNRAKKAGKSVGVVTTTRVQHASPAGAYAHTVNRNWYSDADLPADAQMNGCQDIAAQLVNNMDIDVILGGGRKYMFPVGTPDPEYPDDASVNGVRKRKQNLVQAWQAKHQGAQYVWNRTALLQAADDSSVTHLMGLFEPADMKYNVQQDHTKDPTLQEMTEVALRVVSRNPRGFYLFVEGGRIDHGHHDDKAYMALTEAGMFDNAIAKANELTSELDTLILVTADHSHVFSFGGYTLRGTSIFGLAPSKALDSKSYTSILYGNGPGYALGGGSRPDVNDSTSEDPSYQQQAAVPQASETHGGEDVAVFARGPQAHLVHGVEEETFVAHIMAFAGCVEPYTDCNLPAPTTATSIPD
T2 sequence (P02701 25-152 partner): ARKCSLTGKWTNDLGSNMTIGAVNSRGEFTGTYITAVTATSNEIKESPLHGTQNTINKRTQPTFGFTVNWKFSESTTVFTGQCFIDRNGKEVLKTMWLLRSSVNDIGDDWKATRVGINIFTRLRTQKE
T1 sequence (P19111 20-506 limits assumed): as the sequence (P19111 20-506 limits assumed) above

Row | Structure (SMILES) | Alkaline phosphatase detection limit (at 2× background) [1, 5] | Alkaline phosphatase detection limit (at 2× background) [1, 6] | Alkaline phosphatase detection limit (at 2× background) ([1]; SAPPHIRE, 5 MINUTE INCUBATION) | Alkaline phosphatase detection limit (at 2× background) ([1]; SAPPHIRE, 20 MINUTE INCUBATION) | Alkaline phosphatase detection limit (at 2× background) ([2]; SAPPHIRE II) | Alkaline phosphatase detection limit (at 2× background) ([2]; SAPPHIRE) | Detection limit (in picograms DNA) 5. min. exp. [3, 7] | Detection limit (in picograms DNA) 1 min. exp. [3, 7] | Detection limit (in picograms DNA) 5. min. exp. ([3]; no BDMQ blocking step) | Detection limit (in picograms DNA) 1 min. exp. ([3]; no BDMQ blocking step, listed as OH-Adamant-2'-ylidene (A isomer)) | HALF-TIME TO PLATEAU (min.) AL LOW ALK PHOS CONCENTRATION ([4]; listed as HO-AMPPD-A) | Detection limit (in picograms DNA) 5. min. exp. [3, 8] | Detection limit (in picograms DNA) 1 min. exp. [3, 8] | Detection limit (in picograms DNA) 1 min. exp. ([3]; no BDMQ blocking step, listed as OH-Adamant-2'-ylidene (B isomer)) | HALF-TIME TO PLATEAU (min.) AL LOW ALK PHOS CONCENTRATION ([4]; listed as HO-AMPPD-B) | Detection limit (in picograms DNA) 5. min. exp. ([3]; BDMQ blocking step) | Detection limit (in picograms DNA) 1 min. exp. ([3]; BDMQ blocking step) | Detection limit (in picograms DNA) 1 min. exp. ([3]; no BDMQ blocking step) | HALF-TIME TO PLATEAU (min.) AL LOW ALK PHOS CONCENTRATION [4]
1 | COC1(c2cccc(OP(=O)(O)O)c2)OOC12C1CC3CC2CC(O)(C3)C1 (single isomer, unassigned) [A-OH-AMPPD, disodium 3-(4-methoxyspiro-[1,2-dioxetane-3,2'-(5'-hydroxy)tricyclo[3.3.1.1^3,7]decan]-4-yl)phenyl phosphate] | 0.0014 pM | 0.00031 pM | 0.0031 pM | 0.0011 pM | 0.0014 pM | 0.0015 pM | 0.625 picograms DNA | 2.500 picograms DNA | 5.000 picograms DNA | 10.000 picograms DNA | 0.93 min |  |  |  |  |  |  |  | 
2 | COC1(c2cccc(OP(=O)(O)O)c2)OOC12C1CC3CC2CC(O)(C3)C1 (single isomer, unassigned) [B-OH-AMPPD, disodium 3-(4-methoxyspiro-[1,2-dioxetane-3,2'-(5'-hydroxy)tricyclo[3.3.1.1^3,7]decan]-4-yl)phenyl phosphate] |  |  |  |  |  |  |  |  | 5.000 picograms DNA |  |  | 1.250 picograms DNA | 5.000 picograms DNA | 20.000 picograms DNA | 1.03 min |  |  |  | 
3 | COC1(c2cccc(OP(=O)(O)O)c2)OOC12C1CC3CC(C1)CC2C3 (stereo not shown) [AMPPD, 3-(4-methoxyspiro[1,2-dioxetane-3,2'-triyclo[3.3.1.1^3,7]decan]-4-yl)phenyl phosphate, reference compound] | 0.0025 pM | 0.0011 pM | 0.0038 pM | 0.0014 pM | 0.0013 pM | 0.0019 pM |  |  | 2.500 picograms DNA |  |  |  |  |  |  | 0.625 picograms DNA | 1.250 picograms DNA | 5.000 picograms DNA | 1.97 min
4 | COC1(c2cccc(OP(=O)(O)O)c2)OOC12C1CC3CC2CC(Cl)(C3)C1 (stereo not shown) [Cl-AMPPD, disodium 3-(4-methoxyspiro-[1,2-dioxetane-3,2'-(5'-chloro)tricyclo[3.3.1.1^3,7]decan]-4-yl) phenyl phosphate] | 0.0008 pM | 0.00043 pM | 0.0014 pM | 0.0005 pM | 0.00021 pM | 0.000705 pM |  |  | 1.250 picograms DNA |  |  |  |  |  |  | 0.313 picograms DNA | 0.313 picograms DNA | 1.250 picograms DNA | 
